Data: patent publication US20260193236A1 (Protego Biopharma, Inc., priority 2022, published 2026)

Test system: IRE1-XBP1s (XBP1-RLuc splicing reporter in HEK293 T-REx cells)
Assay: IRE1-XBP1s activation assay (XBP1-RLuc splicing reporter, HEK293 T-REx cells, luminescence relative to thapsigargin)
Assay type: cell-based
Settings: 18 h, compound 10 μM, HEK293 T-REx XBP1-RLuc reporter cells, relative to thapsigargin (Tg) 500 nM, read-out: Activity (IRE1-XBP1s activation, luminescence as % signal relative to thapsigargin, % Tg)
Method: IRE1-XBP1s activation Assay: HEK293 T-REx cells stably expressing the XBP1-RLuc splicing reporter were treated with an IRE1-XBP1s activator provided herein (10 μM) in the presence or absence of the IRE1 active site inhibitor 4μ8C (32 μM) for 18 h. Luminescence was shown as the percentage signal relative to thapsigargin (Tg) (500 nM, 18 h).

| SMILES | activation at 10 µM [%] |
| --- | --- |
| Cc1ccc(OCCN(C)C(=O)Cn2cc(NC(=O)CCNc3c(F)cnc(C)c3C)cn2)cc1 [Compound 215] | > 50 |
| CNc1ccnc(OCCC(=O)Nc2cnn(CC(=O)N(C)CCOc3ccc(C)cc3)c2)n1 [Compound 216] | < 30 |
| Cc1ccc(OCCN(C)C(=O)Cn2cc(NC(=O)CC(C)(C)Nc3ccnc(F)n3)cn2)cc1 [Compound 217, 3-((2-fluoropyrimidin-4-yl)amino)-3-methyl-N-(1-(2-(methyl(2-(p-tolyloxy)ethyl)amino)-2-oxoethyl)-1H-pyrazol-4-yl)butanamide] | < 30 |
| Cc1ccc(OCCN(C)C(=O)Cn2cc(NC(=O)CC(C)(C)Nc3nccc(F)n3)cn2)cc1 [Compound 218, 3-((4-fluoropyrimidin-2-yl)amino)-3-methyl-N-(1-(2-(methyl(2-(p-tolyloxy)ethyl)amino)-2-oxoethyl)-1H-pyrazol-4-yl)butanamide] | > 50 |
| Cc1ccc(OCCN(C)C(=O)Cn2cc(NC(=O)C(CNc3ccc(F)nc3C)C3CCCCC3)cn2)cc1 (stereo not shown) [Compound 219] | 30 to 50 |
| Cc1ccc(OCCN(C)C(=O)Cn2cc(NC(=O)[C@@H](C)CNc3ccc(F)nc3C)cn2)cc1 [Compound 220] | 30 to 50 |
| Cc1ccc(OCCN(C)C(=O)Cn2cc(NC(=O)C(C)(C)CNc3ccc(F)nc3C)cn2)cc1 [Compound 221] | < 30 |
| [2H]C([2H])([2H])c1ccc(OCCN(C)C(=O)Cn2cc(NC(=O)CCNc3ccnc(F)n3)cn2)cc1 [Compound 222] | > 50 |
| Cc1ccc(OCCN(C)C(=O)Cn2cc(NC(=O)[C@@H](C)CNc3nccc(F)n3)cn2)cc1 [Compound 223] | > 50 |
| Cc1ccc(OCCN(C)C(=O)Cn2cc(NC(=O)[C@@H](C)CNc3ccnc(F)n3)cn2)cc1 [Compound 224] | > 50 |
| Cc1ccc(OCCN(C)C(=O)Cn2cc(NC(=O)[C@H](C)CNc3ccnc(F)n3)cn2)cc1 [Compound 225] | 30 to 50 |
| Cc1ccc(OCCN(C)C(=O)Cn2cc(NC(=O)CCNc3cc(Cl)nc4nccn34)cn2)cc1 [Compound 226] | < 30 |
| Cc1ccc(OCCN(C)C(=O)Cn2cc(NC(=O)CCNc3ccnc4nccn34)cn2)cc1 [Compound 227] | < 30 |
| Cc1ccc(OCCN(C)C(=O)Cn2cc(NC(=O)CCNc3c(F)cncc3C=O)cn2)cc1 [Compound 230, 3-((3-fluoro-5-formylpyridin-4-yl)amino)-N-(1-(2-(methyl(2-(p-tolyloxy)ethyl)amino)-2-oxoethyl)-1H-pyrazol-4-yl)propanamide] | > 50 |
| Cc1ccc(OCCN(C)C(=O)Cn2cc(NC(=O)CCNc3c(F)cncc3C(C)C)cn2)cc1 [Compound 231] | > 50 |
| CC(=O)c1cncc(F)c1NCCC(=O)Nc1cnn(CC(=O)N(C)CCOc2ccc(C)cc2)c1 [Compound 232] | > 50 |
| Cc1ccc(OCCN(C)C(=O)Cn2cc(NC(=O)CCOc3cccnc3N)cn2)cc1 [Compound 233] | > 50 |
| C#CCCC1(CCC(=O)Nc2ccc(OCCC(=O)Nc3cnn(CC(=O)N(C)CCOc4ccc(C)cc4)c3)nc2)N=N1 [Compound 234] | > 50 |
| Cc1ccc(OCCN(C)C(=O)Cn2cc(NC(=O)CCOc3cncc(N)c3)cn2)cc1 [Compound 235] | < 30 |
| C#CCCC1(CCC(=O)Nc2cncc(OCCC(=O)Nc3cnn(CC(=O)N(C)CCOc4ccc(C)cc4)c3)c2)N=N1 [Compound 236] | < 30 |
| Cc1ccc(OCCN(C)C(=O)Cn2cc(NC(=O)/C=C/Oc3cccnc3N)cn2)cc1 [Compound 237] | < 30 |
| Cc1nc(F)ccc1NCCC(=O)Nc1cnn(CC(=O)N(C)CCOc2cnn(C)c2)c1 [Compound 238, 3-[(6-fluoro-2-methyl-3-pyridyl)amino]-N-[1-[2-[methyl-[2-(1-methylpyrazol-4-yl)oxyethyl]amino]-2-oxo-ethyl]pyrazol-4-yl]propanamide] | < 30 |
| Cc1ccc2nc(OCCN(C)C(=O)Cn3cc(NC(=O)CCNc4ccc(F)nc4C)cn3)sc2c1 [Compound 239] | < 30 |
| Cc1cnc(OCCN(C)C(=O)Cn2cc(NC(=O)CCNc3ccc(F)nc3C)cn2)cn1 [Compound 240] | < 30 |
| Cc1ncc(OCCN(C)C(=O)Cn2cc(NC(=O)CCNc3ccc(F)nc3C)cn2)cn1 [Compound 241] | < 30 |
| Cc1nc(F)ccc1NCCC(=O)Nc1cnn(CC(=O)N(C)CCOc2ccn(C)n2)c1 [Compound 242] | < 30 |
| Cc1ccc(OCCN(C)C(=O)Cn2cc(NC(=O)CCNc3ccc(F)nc3C)cn2)cn1 [Compound 243] | < 30 |

| SMILES | activation at 10 µM [%] |
| --- | --- |
| Cc1cnc(OCCN(C)C(=O)Cn2cc(NC(=O)CCNc3ccc(F)nc3C)cn2)nc1 [Compound 244] | < 30 |
| Cc1ccc2sc(OCCN(C)C(=O)Cn3cc(NC(=O)CCNc4ccc(F)nc4C)cn3)nc2c1 [Compound 246] | < 30 |
| Cc1nnc(OCCN(C)C(=O)Cn2cc(NC(=O)CCNc3ccc(F)nc3C)cn2)s1 [Compound 247] | < 30 |
| Cc1ccc(OCCN(C)C(=O)Cn2cc(NC(=O)CCNC(=O)c3ncc(F)cn3)cn2)cc1 [Compound 248, 5-Fluoro-N-[3-[[1-[2-[methyl-[2-(4-methylphenoxy)ethyl]amino]-2-oxo-ethyl]pyrazol-4-yl]amino]-3-oxo-propyl]pyrimidine-2-carboxamide] | < 30 |
| Cc1ccc(OCCN(C)C(=O)Cn2cc(NC(=O)CNC(=O)c3ncc(F)cn3)cn2)cc1 [Compound 249] | < 30 |
| Cc1ccc(OCCN(C)C(=O)Cn2cc(NC(=O)CCNc3c(F)cncc3C3CC3)cn2)cc1 [Compound 250, 3-((3-cyclopropyl-5-fluoropyridin-4-yl)amino)-N-(1-(2-(methyl(2-(p-tolyloxy)ethyl)amino)-2-oxoethyl)-1H-pyrazol-4-yl)propanamide] | > 50 |
| C=Cc1cncc(F)c1NCCC(=O)Nc1cnn(CC(=O)N(C)CCOc2ccc(C)cc2)c1 [Compound 251] | > 50 |
| COC(=O)Nc1cccc(NCCC(=O)Nc2cnn(CC(=O)N(C)CCOc3ccc(C)cc3)c2)n1 [Compound 253] | < 30 |
| C=C(C)c1cncc(F)c1NCCC(=O)Nc1cnn(CC(=O)N(C)CCOc2ccc(C)cc2)c1 [Compound 254] | > 50 |
| Cc1ccc(OCCN(C)C(=O)Cn2cc(NC(=O)CCNc3ccc(O)nc3)cn2)cc1 [Compound 255] | < 30 |
| Cc1ccc(OCC(C)(C)N(C)C(=O)Cn2cc(NC(=O)CCNc3ccnc(F)n3)cn2)cc1 [Compound 256] | > 50 |
| Cc1ccc(OCCN(C)C(=O)Cn2cc(NC(=O)CCNc3cncnc3C(C)C)cn2)cc1 [Compound 257] | < 30 |
| Cc1ccc(OCCN(C)C(=O)Cn2cc(NC(=O)CNC(=O)c3ccncc3)cn2)cc1 [Compound 259] | < 30 |
| Cc1ccc(OCCN(C)C(=O)Cn2cc(NC(=O)CCNc3ccnc(O)n3)cn2)cc1 [Compound 260, 3-((2-hydroxypyrimidin-4-yl)amino)-N-(1-(2-(methyl(2-(p-tolyloxy)ethyl)amino)-2-oxoethyl)-1H-pyrazol-4-yl)propanamide] | < 30 |
| COC(=O)Nc1cccc(OCCC(=O)Nc2cnn(CC(=O)N(C)CCOc3ccc(C)cc3)c2)n1 [Compound 261, methyl (6-(3-((1-(2-(methyl(2-(p-tolyloxy)ethyl)amino)-2-oxoethyl)-1H-pyrazol-4-yl)amino)-3-oxopropoxy)pyridin-2-yl)carbamate] | 30 to 50 |
| COC(=O)Nc1cc(OCCC(=O)Nc2cnn(CC(=O)N(C)CCOc3ccc(C)cc3)c2)ccn1 [Compound 262] | 30 to 50 |
| Cc1cc(OCCN(C)C(=O)Cn2cc(NC(=O)CCNc3ccnc(F)n3)cn2)no1 [Compound 263] | < 30 |
| Cc1ccc(OC[C@H](C)N(C)C(=O)Cn2cc(NC(=O)CCNc3ccnc(F)n3)cn2)cc1 [Compound 264] | > 50 |
| CN(CCOc1ccc(C(F)(F)F)cn1)C(=O)Cn1cc(NC(=O)CCNc2ccnc(O)n2)cn1 [Compound 265] | < 30 |
| Cc1ccc(OC[C@@H](C)N(C)C(=O)Cn2cc(NC(=O)CCNc3ccnc(O)n3)cn2)cc1 [Compound 266] | < 30 |
| CN(CCOc1ccc(C(F)(F)F)cn1)C(=O)Cn1cc(NC(=O)CCNc2ccnc(F)n2)cn1 [Compound 267] | 30 to 50 |
| Cc1ccc(OC[C@@H](C)N(C)C(=O)Cn2cc(NC(=O)CCNc3ccnc(F)n3)cn2)cc1 [Compound 268] | > 50 |
| CC(C)c1cncc(F)c1NCCC(=O)Nc1cnn(CC(=O)N(C)CCOc2ccc(C(F)(F)F)cn2)c1 [Compound 269] | > 50 |
| Cc1ccc(OC[C@@H](C)N(C)C(=O)Cn2cc(NC(=O)CCNc3nccc(F)n3)cn2)cc1 [Compound 270] | 30 to 50 |
| CN(CCOc1cc(C(F)F)on1)C(=O)Cn1cc(NC(=O)CCNc2nccc(F)n2)cn1 [Compound 271] | < 30 |
| CN(CCOc1cc(C(F)F)on1)C(=O)Cn1cc(NC(=O)CCNc2ccnc(F)n2)cn1 [Compound 272] | < 30 |
| Cc1ccc(OCCN(C)C(=O)Cn2cc(NC(=O)CCOc3cccnc3NS(C)(=O)=O)cn2)cc1 [Compound 273, N-(1-(2-(methyl(2-(p-tolyloxy)ethyl)amino)-2-oxoethyl)-1H-pyrazol-4-yl)-3-((2-(methylsulfonamido)pyridin-3-yl)oxy)propanamide] | < 30 |

Same assay, conditions: 18 h, read-out: Activity (IRE1-XBP1s activation, luminescence as % signal relative to thapsigargin, % Tg)

| SMILES | activation at 10 µM [%] |
| --- | --- |
| Cc1ccc(OCCN(C)C(=O)Cn2cc(NC(=O)C(C)(C)C(=O)Nc3ncc(F)cn3)cn2)cc1 [Compound 258, N1-(5-fluoropyrimidin-2-yl)-2,2-dimethyl-N3-(1-(2-(methyl(2-(p-tolyloxy)ethyl)amino)-2-oxoethyl)-1H-pyrazol-4-yl)malonamide] | < 30 |
